In US20240201204A1, “Biomarker and Druggable Target of Neurodegeneration” (University Hospitals Cleveland Medical Center, priority 2020, published 2024):

How the values were obtained:
axon initial segment = assay: Axon initial segment (AIS) degradation after TBI (AnkG, βIV-spectrin staining); type: in vivo, mouse; conditions: vs. TBI+Vehicle
Procedure: (§1) Drug preparation and administration: CGP3466B (Sigma-Aldrich, SML1941) was dissolved in DMSO and then diluted in sterile saline. The final working stock was 0.0014 mg/ml for administering the 0.014 mg/kg dose. Intraperitoneal administration of CGP3466B was initiated 15 min or 24 h after injury, and tissues were harvested 6 h (for SNO-GAPDH, SNO-SIRT1 measurement) or 2 weeks (for ac-tau measurement) later, respectively. Salsalate (AdipoGen, AG-CR1-3574) was dissolved in DMSO and then diluted in sterile PBS. The final working stocks were as follows: 2.5 mg/ml (25 mg/kg dose), 1 mg/ml (10 mg/kg dose), 0.5 mg/ml (5 mg/kg dose). Daily intraperitoneal administration of salsalate was initiated 24 hr after injury and continued throughout behavioral testing. P7C3-A20 and FK866 (Sigma-Aldrich, F8557) were first dissolved in 1 vol of DMSO, followed by addition of 4 vol of Kolliphor and vigorously vortexing. The solution was then diluted with 30 vol of filtered 5% dextrose (pH 7.0). EX527 (Selleckchem, S1541) was dissolved in 1% DMSO+30% polyethylene glycol+1% Tween 80. Daily intraperitoneal administration of P7C3-A20 was initiated 24 hr after poly-traumatic brain injury. EX527 (10 mg/kg) was administer once a day and FK866 was treated twice per day, with the first injection given at the same time as P7C3-A20 (20 mg/kg) and the second injection given 6 h later (LoCoco et al., 2017 eLife). Diflunisal was first dissolved in 1 vol of DMSO, followed by addition of 2 vol of Kolliphor and vigorously vortexing. The solution was then diluted with 7 vol of saline to the appropriate concentration for administration at 25, 50, or 100 mg/kg.
(§2) The pressure in the side not containing the mouse was increased to cause membrane rupture at 20 pounds per square inch (PSI), which generates an about 1-2 ms jet airflow of 137.9+/−13.79 kPa that passes through the animal's head. The head remains untethered in a padded holder, while the body is fully shielded by a metal tube. The jet of air produced upon membrane rupture provides a concussive injury, which is followed by acceleration/deceleration of the head and then exposure to the ensuing blast wave within an enclosed space.
Immunohistochemistry: Mice were transcardially perfused with cold 1× phosphate-buffered saline (PBS) followed by 4% paraformaldehyde in PBS at pH 7.4 under anesthesia. Brains were carefully removed and post-fixed in 4% paraformaldehyde overnight at 4° C. Brains were immersed in 30% sucrose in PBS for 72 h at 4° C. and then rapidly frozen in 2-methylbutane pre-cooled to −20° C. with dry ice. Brains were cut coronally (40 μm) and sections were stored in cryoprotective solution (150 mM Ethylene glycol, 100 mM glycerol, 250 mM PBS) at −20° C. For tau and NeuN staining, sections were washed three times with PBS for 5 min and then treated with 0.2% Triton X-100 in PBS for 15 min. Sections were washed with PBS and then incubated with 100 mM glycine for 15 min. After blocking sections using blocking buffer (1% bovine serum albumin, 10% normal goat serum, 0.3 M glycine) for 30 min, primary antibodies (Tau, Invitrogen, #13-6400, 1:100, NeuN, EMD Millipore Cor., #MABN-140, 1:500) were incubated overnight at 4° C. Sections were washed three times with PBS (5 min each) and then incubated with Alexa Fluor 488 goat anti-mouse (Invitrogen, A11001, 1:200) or Alexa Fluor 568 goat anti-rabbit (Life technologies, A11011, 1:200) at room temperature for 2 h. […]

GAPDH = molecular target: T1, GAPDH (Mus musculus, UniProt P16858); assay: S-nitrosylation of GAPDH after TBI (SNO-resin assisted capture, western blot); type: in vivo
T1 construct: from tissue; host or cells: cerebral cortex of C57BL/6J mice after TBI
Procedure: as §1, with “The solution was then diluted with 7 vol of saline to the appropriate concentration for administration at 25, 50, or 100 mg/kg.” left out
SNO-resin assisted capture (SNO-RAC): SNO-RAC was performed as described previously (Forrester, 2009). […] After two times centrifugation (20,000 g at 4° C. for 20 min), protein concentration of supernatants was determined using Coomassie protein assay (Thermo Scientific, #1856210). […] SNO-proteins were then eluted with 2× Laemmli Sample Buffer (Bio-Rad Laboratories, Inc., #1610737) with 10% beta-mercaptoethanol (Bio-Rad Laboratories, Inc., #1610710) and analyzed by SDS-PAGE and immunoblotting.

C57BL/6J mice = assay: Barnes maze task of learning and memory after TBI; type: in vivo, mouse
Procedure: as §1, §2
Barnes maze: The Barnes maze apparatus consisted of a gray circular platform (91 cm in diameter and 90 cm in height), with 20 equally spaced holes 5 cm in diameter along the perimeter (Stoelting Co.). One of these holes contained a recessed escape chamber located under the platform. Four different and equally-spaced visual cues with different shapes and colors were hung on a black circular curtain surrounding the maze. […] Total and primary latency were measured during training days, and latency to first nose pokes in escape hole and time spent in target quadrant were measured for memory test on the probe trial day. […]

T1 sequence (P16858 whole entry): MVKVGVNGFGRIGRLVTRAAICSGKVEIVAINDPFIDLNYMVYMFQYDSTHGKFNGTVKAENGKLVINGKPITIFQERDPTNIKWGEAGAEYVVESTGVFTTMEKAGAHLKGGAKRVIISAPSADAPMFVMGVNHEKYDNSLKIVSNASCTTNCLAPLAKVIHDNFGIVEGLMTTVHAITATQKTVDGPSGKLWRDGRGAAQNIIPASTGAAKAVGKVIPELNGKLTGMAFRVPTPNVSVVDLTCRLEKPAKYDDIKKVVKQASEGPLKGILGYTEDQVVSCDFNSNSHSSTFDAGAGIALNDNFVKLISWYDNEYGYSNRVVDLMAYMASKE

SMILES	post-TBI AIS degradation, cerebral cortex (axon initial segment; CGP3466B 0.014 mg/kg IP daily)	post-TBI AIS degradation, hippocampus (axon initial segment; CGP3466B 0.014 mg/kg IP daily)	S-nitrosylation of GAPDH (GAPDH; CGP3466B 0.014 mg/kg IP initiated 15 min after TBI, cerebral cortex harvested 6 h later, vs. TBI+Vehicle)	post-TBI cognition, learning and memory phases of Barnes maze (C57BL/6J mice; CGP3466B 0.014 mg/kg IP daily, initiated 24 hours after injury, vs. TBI+Vehicle)	post-TBI AIS degradation (axon initial segment; low-dose salsalate daily IP from 24 h after TBI)	S-nitrosylation of GAPDH (GAPDH; 25 mg/kg salsalate after TBI)	post-TBI cognitive impairment (learning and memory in the Barnes maze) (C57BL/6J mice; low-dose salsalate daily IP from 24 h after TBI, vs. TBI+Vehicle)	average speed in behavioral testing (C57BL/6J mice; salsalate daily IP from 24 h after TBI)	learning, primary latency during training period of the Barnes maze (C57BL/6J mice; salsalate daily IP from 24 h after TBI, vs. TBI+Vehicle)
C#CCN(C)CC1=Cc2ccccc2Oc2ccccc21.O=C(O)/C=C\C(=O)O [CGP3466B]	protects mice from post-TBI AIS degradation in the cerebral cortex	protects mice from post-TBI AIS degradation in the hippocampus	inhibits S-nitrosylation of GAPDH and Sirt1	protects mice from post-TBI impaired cognition in both learning and memory phases					
O=C(Oc1ccccc1C(=O)O)c1ccccc1O [salsalate]					protects mice from post-TBI AIS degradation	S-nitrosylation of GAPDH is not affected	protects mice from post-TBI impairments	Average speed was not affected	improved learning as measured by primary latency
